According to US9226506B2, “Methods of weed control in chicory” (Dow AgroSciences LLC, priority 2013, dated 2016):

How the values were obtained:
[1] = system: chicory (varieties Ecrine, Hermès); assay: Chicory leaf development after post-emergence applications; design: species or system Cichorium intybus; settings: in vivo
Method: (§1) Field trials were conducted in Northern France and Belgium, both of which are major areas for root chicory and whitloof chicory production. Trials were conducted in accordance with EPPO standard PP 1/99(3) entitled “Weeds in Roots Vegetables,” PP 1/152(4) entitled “Design and Analysis of Efficacy Evaluation Trials,” PP 1/135(3) entitled “Phytotoxic Assessment,” and PP 1/181(4) entitled “Conduct and Reporting of Efficacy Evaluation Trials Including Good Experimental Practice,” all of which are incorporated herein by reference in their entirety.
(§2) Application to all field trials was made using a small plot precision sprayer operating at between 160-400 kilopascals (kPa) pressure, delivering a spray volume of 150-400 liters per hectare (L/ha). Nozzles were of a flat fan type. Trial plot size ranged from 4.5×2.5 square meters (m^2) to 10.5×2.5 m^2. Plots were replicated 3 or 4 times and were arranged in a randomized block design within each trial. […]
(§3) In whitloof chicory (Cichorium intybus), treatments were evaluated which included either two or three post-emergence applications of herbicide. Multiple applications of herbicide were evaluated for their ability to control weed emergence during the extended period of time required for chicory cultivation. […]

[2] = system: chicory (varieties Ecrine, Hermès); assay: Chicory root development (number of roots) after post-emergence applications; format: in vivo, Cichorium intybus; settings: treatment with penoxsulam in chicory field trials
Method: Field trials were conducted in Northern France and Belgium, both of which are major areas for root chicory and whitloof chicory production. Trials were conducted in accordance with EPPO standard PP 1/99(3) entitled “Weeds in Roots Vegetables,” PP 1/152(4) entitled “Design and Analysis of Efficacy Evaluation Trials,” PP 1/135(3) entitled “Phytotoxic Assessment,” and PP 1/181(4) entitled “Conduct and Reporting of Efficacy Evaluation Trials Including Good Experimental Practice,” all of which are incorporated herein by reference in their entirety. […]
as §3
Harvest was carried out 171 DAAC on 4 rows per plot. After harvest, the roots were counted and weighted, and the percent of roots usable for forcing was measured. […] The brut yield (total weight of chicons produced; marketable+non-marketable), net yield (weight of marketable chicons produced) and best class yield (Extra+1=weight of Extra and First Class chicons produced) were measured (in kilograms per 10 square meters (kg/10 m^2)).

[3] = system: chicory (varieties Ecrine, Hermès); assay: Yield of chicons after forcing; format: in vivo, Cichorium intybus; settings: 171 DAAC and 21 days after start of forcing; for Yield of Chicons, Brut, Average / Yield of Chicons, Brut, Ecrine / Yield of Chicons, Brut, Hermès: total weight of chicons; for Yield of Chicons, Brut, Average: average of both varieties; for Yield of Chicons, Extra + 1, Ecrine / Yield of Chicons, Extra + 1, Hermès: weight of Extra and First Class chicons; for Yield of Chicons, Net, Ecrine / Yield of Chicons, Net, Hermès: weight of marketable chicons
Method: Trials were also performed to investigate the effect of post-emergence applications of penoxsulam or SAFARI® (triflusulfuron-methyl) on the yield of chicons in two different varieties of chicory. The trial was carried out on plots measuring 3×5 meters. Two varieties of chicory (Hermes and Ecrine) were sown. Treatments were carried out, as described above (a) 18 days after sowing, (b) 25 days after sowing, and (c) 32 days after sowing. Trial assessments were carried out 21 DAAC and 46 DAAC on the number of plants per linear meter, and on their development stage (number of leaves per plant).
Harvest was carried out 171 DAAC on 4 rows per plot. After harvest, the roots were counted and weighted, and the percent of roots usable for forcing was measured. The roots were then stored in a conservation room for 21 days until start of forcing phase. After 21 days of forcing, the chicons produced were weighed and classified in the commercial quality categories. The brut yield (total weight of chicons produced; marketable+non-marketable), net yield (weight of marketable chicons produced) and best class yield (Extra+1=weight of Extra and First Class chicons produced) were measured (in kilograms per 10 square meters (kg/10 m^2)).

[4] = system: undesirable vegetation; assay: Weed control field trials, overall statement; format: in vivo; settings: applied post-emergence to the crop and weeds
Method: as §1
Application to all field trials was made using a small plot precision sprayer operating at between 160-400 kilopascals (kPa) pressure, delivering a spray volume of 150-400 liters per hectare (L/ha). Nozzles were of a flat fan type. Trial plot size ranged from 4.5×2.5 square meters (m^2) to 10.5×2.5 m^2. […]
as §3
3) Following treatments, the remaining plants were weighed to determine the mass per plant (expressed as g/plant) one month after the last pesticide application. […]

[5] = system: chicory; design: species or system Cichorium intybus; settings: in vivo
Method: as §1, §2, §3

COc1cnc(OC)n2nc(NS(=O)(=O)c3c(OCC(F)F)cccc3C(F)(F)F)nc12 [Penoxsulam]
Average number of leaves (measured 21 DAAC) Average [1]: 7 a | effect on root yield [2]: no deleterious effect on root yield | Yield of Chicons, Brut, Average ([3]; 5/5/5 g ai/ha): 40.7 Kg/10 m^2 | Yield of Chicons, Brut, Average ([3]; 7.5/7.5/7.5 g ai/ha): 40.8 Kg/10 m^2 | Yield of Chicons, Brut, Average ([3]; 7.5/7.5 g ai/ha): 39.6 Kg/10 m^2 | Yield of Chicons, Brut, Average ([3]; 10/10/10 g ai/ha): 45.1 Kg/10 m^2 | Yield of Chicons, Brut, Average ([3]; 11.2/11.2 g ai/ha): 39.9 Kg/10 m^2 | Yield of Chicons, Brut, Average ([3]; 15/15 g ai/ha): 39.9 Kg/10 m^2 | Yield of Chicons, Brut, Ecrine ([3]; 5/5/5 g ai/ha): 47.5 Kg/10 m^2 | Yield of Chicons, Brut, Hermès ([3]; 5/5/5 g ai/ha): 33.8 Kg/10 m^2 | Yield of Chicons, Brut, Ecrine ([3]; 7.5/7.5/7.5 g ai/ha): 45.1 Kg/10 m^2 | Yield of Chicons, Brut, Hermès ([3]; 7.5/7.5/7.5 g ai/ha): 36.5 Kg/10 m^2 | Yield of Chicons, Brut, Ecrine ([3]; 7.5/7.5 g ai/ha): 42.4 Kg/10 m^2 | Yield of Chicons, Brut, Hermès ([3]; 7.5/7.5 g ai/ha): 36.7 Kg/10 m^2 | Yield of Chicons, Brut, Ecrine ([3]; 10/10/10 g ai/ha): 50.7 Kg/10 m^2 | Yield of Chicons, Brut, Hermès ([3]; 10/10/10 g ai/ha): 39.4 Kg/10 m^2 | Yield of Chicons, Brut, Ecrine ([3]; 11.2/11.2 g ai/ha): 42.8 Kg/10 m^2 | Yield of Chicons, Brut, Hermès ([3]; 11.2/11.2 g ai/ha): 37 Kg/10 m^2 | Yield of Chicons, Brut, Ecrine ([3]; 15/15 g ai/ha): 46.4 Kg/10 m^2 | Yield of Chicons, Brut, Hermès ([3]; 15/15 g ai/ha): 33.4 Kg/10 m^2 | Yield of Chicons, Extra + 1, Ecrine ([3]; 5/5/5 g ai/ha): 29 Kg/10 m^2 | Yield of Chicons, Extra + 1, Hermès ([3]; 5/5/5 g ai/ha): 17.7 Kg/10 m^2 | Yield of Chicons, Extra + 1, Ecrine ([3]; 7.5/7.5/7.5 g ai/ha): 27.2 Kg/10 m^2 | Yield of Chicons, Extra + 1, Hermès ([3]; 7.5/7.5/7.5 g ai/ha): 18.6 Kg/10 m^2 | Yield of Chicons, Extra + 1, Ecrine ([3]; 7.5/7.5 g ai/ha): 28.2 Kg/10 m^2 | Yield of Chicons, Extra + 1, Hermès ([3]; 7.5/7.5 g ai/ha): 21.1 Kg/10 m^2 | Yield of Chicons, Extra + 1, Ecrine ([3]; 10/10/10 g ai/ha): 29.5 Kg/10 m^2 | Yield of Chicons, Extra + 1, Hermès ([3]; 10/10/10 g ai/ha): 19.2 Kg/10 m^2 | Yield of Chicons, Extra + 1, Ecrine ([3]; 11.2/11.2 g ai/ha): 25 Kg/10 m^2 | Yield of Chicons, Extra + 1, Hermès ([3]; 11.2/11.2 g ai/ha): 22.8 Kg/10 m^2 | Yield of Chicons, Extra + 1, Ecrine ([3]; 15/15 g ai/ha): 30.7 Kg/10 m^2 | Yield of Chicons, Extra + 1, Hermès ([3]; 15/15 g ai/ha): 16.1 Kg/10 m^2 | Yield of Chicons, Net, Ecrine ([3]; 5/5/5 g ai/ha): 36.4 Kg/10 m^2 | Yield of Chicons, Net, Hermès ([3]; 5/5/5 g ai/ha): 25.6 Kg/10 m^2 | Yield of Chicons, Net, Ecrine ([3]; 7.5/7.5/7.5 g ai/ha): 34.6 Kg/10 m^2 | Yield of Chicons, Net, Hermès ([3]; 7.5/7.5/7.5 g ai/ha): 25.7 Kg/10 m^2 | Yield of Chicons, Net, Ecrine ([3]; 7.5/7.5 g ai/ha): 33.9 Kg/10 m^2 | Yield of Chicons, Net, Hermès ([3]; 7.5/7.5 g ai/ha): 26.6 Kg/10 m^2 | Yield of Chicons, Net, Ecrine ([3]; 10/10/10 g ai/ha): 38.7 Kg/10 m^2 | Yield of Chicons, Net, Hermès ([3]; 10/10/10 g ai/ha): 27.7 Kg/10 m^2 | Yield of Chicons, Net, Ecrine ([3]; 11.2/11.2 g ai/ha): 33.2 Kg/10 m^2 | Yield of Chicons, Net, Hermès ([3]; 11.2/11.2 g ai/ha): 28.6 Kg/10 m^2 | Yield of Chicons, Net, Ecrine ([3]; 15/15 g ai/ha): 37.4 Kg/10 m^2 | Yield of Chicons, Net, Hermès ([3]; 15/15 g ai/ha): 22.5 Kg/10 m^2 | control of undesirable vegetation [4]: good control of undesirable vegetation | crop tolerance [5]: commercially acceptable crop tolerance | visible crop injury [5]: some visible crop injury
